Tests used:
PRMT5-MTA = PRMT5-MTA (Homo sapiens, UniProt O14744); test: Enzymatic inhibitory activity against PRMT5-MTA (AlphaScreen); type: biochemical; conditions: read-out: IC50
How it was run: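 PRMT5/[…] (1 nM) was preincubated for 30 min at room temperature with 1 µM […] and 2.5 µM SAM, then exposed to compound (10-point, 3-fold from 1000 nM) for 15 min at 23 °C. Histone H4 substrate (5 nM) was added and reacted for 45 min at 23 °C. Symmetric dimethyl-R3 H4 was detected by AlphaScreen and IC50 calculated.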

HCT116 MTAP KO cells = test: Inhibitory activity against cell proliferation (CellTiter Glo, 6 days), HCT116 MTAP KO; type: cell-based; conditions: for IC50: Homo sapiens, HCT-116, 144 h, HCT116 MTAP KO cells, 6 days, CellTiter Glo, read-out: HCT116 MTAP KO IC50; for Selectivity HCT 116-WT/ HCT116 MTAP KO: ratio of IC50 HCT116-WT / HCT116 MTAP KO
How it was run: (§1)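 250 cells/well, McCoy's 5A + 10% FBS, o/n 37°C 5% CO2; cpd 8-pt 4-fold from 10000 nM, 6 d; CTG lum on day 7; IC50 vs DMSO.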

HCT116-WT cells = test: Inhibitory activity against cell proliferation (CellTiter Glo, 6 days), HCT116-WT; type: cell-based; conditions: 144 h, HCT116-WT cells, 6 days, CellTiter Glo; read-out: HCT116-WT IC50
How it was run: as §1

Sequence of PRMT5-MTA (O14744 whole entry): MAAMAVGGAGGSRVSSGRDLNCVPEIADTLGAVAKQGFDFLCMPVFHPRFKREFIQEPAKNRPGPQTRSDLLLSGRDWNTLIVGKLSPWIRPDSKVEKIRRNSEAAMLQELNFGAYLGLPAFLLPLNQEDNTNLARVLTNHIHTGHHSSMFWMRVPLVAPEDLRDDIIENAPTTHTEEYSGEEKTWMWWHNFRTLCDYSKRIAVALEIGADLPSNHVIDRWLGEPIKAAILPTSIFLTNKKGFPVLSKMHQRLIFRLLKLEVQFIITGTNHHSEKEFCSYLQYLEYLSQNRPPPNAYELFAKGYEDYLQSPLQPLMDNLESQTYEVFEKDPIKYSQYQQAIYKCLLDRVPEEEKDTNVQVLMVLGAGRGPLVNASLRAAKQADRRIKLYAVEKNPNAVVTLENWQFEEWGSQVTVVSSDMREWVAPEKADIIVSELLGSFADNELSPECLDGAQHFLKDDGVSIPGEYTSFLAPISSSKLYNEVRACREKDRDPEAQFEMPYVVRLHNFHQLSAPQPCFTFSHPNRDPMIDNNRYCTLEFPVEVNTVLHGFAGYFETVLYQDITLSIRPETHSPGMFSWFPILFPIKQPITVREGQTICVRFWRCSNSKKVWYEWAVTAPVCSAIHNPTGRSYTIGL
Sequence of PRMT5-MTA (Q9BQA1 whole entry partner): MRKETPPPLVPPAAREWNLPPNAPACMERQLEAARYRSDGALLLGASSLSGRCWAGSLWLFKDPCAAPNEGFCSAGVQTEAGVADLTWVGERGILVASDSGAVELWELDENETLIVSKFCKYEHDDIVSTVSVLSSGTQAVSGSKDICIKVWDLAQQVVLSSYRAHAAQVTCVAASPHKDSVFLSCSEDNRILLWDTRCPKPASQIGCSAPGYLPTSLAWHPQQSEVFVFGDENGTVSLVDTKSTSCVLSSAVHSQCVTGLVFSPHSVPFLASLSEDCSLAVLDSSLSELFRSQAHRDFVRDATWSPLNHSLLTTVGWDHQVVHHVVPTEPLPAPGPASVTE

SMILES	IC50 (PRMT5-MTA)	IC50 (HCT116 MTAP KO cells)	Selectivity HCT 116-WT/ HCT116 MTAP KO (HCT116 MTAP KO cells)	IC50 (HCT116-WT cells)
Cc1cc2cc(C(=O)N(Cc3ccc(C(F)(F)F)cc3F)N(C)c3ncccn3)ccc2nc1N [Example 90, 2-amino-N-(2-fluoro-4-(trifluoromethyl)benzyl)-N',3-dimethyl-N'-(pyrimidin-2-yl) quinoline-6-carbohydrazide]	4.5 nM	98 nM	22.13	2170 nM
Cc1cc2cc(C(=O)N(Cc3ccc(C(F)(F)F)cn3)N(C)c3nccc4cccnc34)ccc2nc1N [Example 91, 2-amino-N',3-dimethyl-N'-(1,7-naphthyridin-8-yl)-N-((5-(trifluoromethyl)pyridin-2-yl)methyl)quinoline-6-carbohydrazide]	2.9 nM	43 nM	39.42	1700 nM
Cc1cc2cc(C(=O)N(Cc3ccc(C(F)(F)F)cn3)N(C)c3ncc4ccsc4n3)ccc2nc1N [Example 92, 2-amino-N',3-dimethyl-N'-(thieno[2,3-d]pyrimidin-2-yl)-N-((5-(trifluoromethyl)pyridin-2-yl)methyl)quinoline-6-carbohydrazide]	2.1 nM	19 nM	29.95	569 nM
Cc1cc2cc(C(=O)N(Cc3ccc(C(F)(F)F)cn3)N(C)c3ncccc3OC(F)F)ccc2nc1N [Example 93, 2-amino-N'-(3-(difluoromethoxy)pyridin-2-yl)-N',3-dimethyl-N-((5-(trifluoromethyl)pyridin-2-yl)methyl)quinoline-6-carbohydrazide]	1.4 nM	20 nM	30.60	612 nM
Cc1cc2cc(C(=O)N(Cc3ccc(C#N)cn3)N(C)c3ncccn3)ccc2nc1N [Example 94, 2-amino-N-((5-cyanopyridin-2-yl)methyl)-N',3-dimethyl-N'-(pyrimidin-2-yl) quinoline-6-carbohydrazide]	2.3 nM	130 nM	23.60	3070 nM
Cc1cc2cc(C(=O)N(Cc3ccc(C(F)(F)F)cn3)N(C)c3ncc(F)cn3)ccc2nc1N [Example 95, 2-amino-N'-(5-fluoropyrimidin-2-yl)-N',3-dimethyl-N-((5-(trifluoromethyl)pyridin-2-yl)methyl)quinoline-6-carbohydrazide]	2.1 nM	70 nM	35.14	2460 nM
CCN(C(=O)c1cc2c(cc1F)nc(N)c1cnn(C)c12)N(C)c1ccc(F)cn1 [Example 97, 4-amino-N-ethyl-7-fluoro-N'-(5-fluoropyridin-2-yl)-N',1-dimethyl-1H-pyrazolo[4,3-c]quinoline-8-carbohydrazide]	5.1 nM	246 nM		> 10000 nM
Cc1cc2cc(C(=O)N(Cc3ccc(C(F)(F)F)cn3)N(C)c3ncc(C(F)(F)F)cc3F)ccc2nc1N [Example 102, 2-amino-N'-(3-fluoro-5-(trifluoromethyl)pyridin-2-yl)-N',3-dimethyl-N-((5-(trifluoromethyl)pyridin-2-yl)methyl)quinoline-6-carbohydrazide]	1.7 nM	348 nM	10.19	3550 nM
Cc1cc2cc(C(=O)N(Cc3cc4ccccc4cn3)N(C)c3ncccn3)ccc2nc1N [Example 104, 2-amino-N-(isoquinolin-3-ylmethyl)-N',3-dimethyl-N'-(pyrimidin-2-yl)quinoline-6-carbohydrazide]	3.4 nM	67 nM	22.94	1540 nM
Cc1cc2cc(C(=O)N(Cc3ccc(C(F)(F)F)cn3)N(C)c3nccc4nccnc34)ccc2nc1N [Example 107, 2-amino-N',3-dimethyl-N'-(pyrido[3,4-b]pyrazin-5-yl)-N-((5-(trifluoromethyl)pyridin-2-yl)methyl)quinoline-6-carbohydrazide]	2.5 nM	46 nM	35.15	1620 nM
